Data from patent US20110306597A1, “Nicotinamide Derivatives” (priority 2008, published 2011).

target: human recombinant H-PGDS (Homo sapiens, UniProt O60760); test: Fluorescence Intensity h-PGDS TBA Enzyme Assay; type: biochemical; settings: 1:175,000 human recombinant H-PGDS, highest inhibitor concentration typically 1 μM
Outline: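 Readout is PGH2 depletion: after a 42 s reaction with 5.0 μM PGH2 and 2.5 mM glutathione (pH 8.0 Tris, 10 min inhibitor preincubation), Fe(II) converts leftover PGH2 to MDA, which forms a fluorescent TBA complex. IC50s come from 11-point, 3-fold duplicate curves, 4-parameter fit.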

Sequence of human recombinant H-PGDS (O60760 whole entry): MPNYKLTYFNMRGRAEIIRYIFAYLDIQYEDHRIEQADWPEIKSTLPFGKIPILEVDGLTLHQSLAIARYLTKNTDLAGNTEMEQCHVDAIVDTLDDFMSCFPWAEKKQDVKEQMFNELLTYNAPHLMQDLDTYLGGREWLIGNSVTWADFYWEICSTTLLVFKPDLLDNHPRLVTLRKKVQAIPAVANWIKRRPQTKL

SMILES | IC50 [nM]
O=C(Nc1cccnc1)c1ccc(-c2ccc(F)cc2)nc1 [Example 328, 6-(4-Fluorophenyl)-N-pyridin-3-ylnicotinamide] | 92
O=C(NCc1ccc(-n2cncn2)cc1)c1ccc(-c2ccc(F)cc2)nc1 [Example 329, 6-(4-Fluorophenyl)-N-[4-(1H-1,2,4-triazol-1-yl)benzyl]nicotinamide] | 552
CCOC(=O)CCCNC(=O)c1ccc(-c2ccc(F)cc2)nc1 [Example 330, Ethyl 4-({[6-(4-fluorophenyl)pyridin-3-yl]carbonyl}amino)butanoate] | 507
CCOC(=O)C(CNC(=O)c1ccc(-c2cccc(OC)c2)nc1)c1c(F)cccc1F (centres unmarked) [Example 331, Ethyl 2-(2,6-difluorophenyl)-3-({[6-(3-methoxyphenyl)pyridin-3-yl]carbonyl}amino) propanoate] | 234
COc1cccc(-c2ccc(C(=O)NCCN3CCOCC3)cn2)c1 [Example 332, 6-(3-Methoxyphenyl)-N-(2-morpholin-4-ylethyl)nicotinamide] | 326
COc1cccc(-c2ccc(C(=O)NCc3ccccc3C)cn2)c1 [Example 333, 6-(3-Methoxyphenyl)-N-(2-methylbenzyl)nicotinamide] | 77.1
COC(=O)CCNC(=O)c1ccc(-c2cccc(OC)c2)nc1 [Example 335, Methyl N-{[6-(3-methoxyphenyl)pyridin-3-yl]carbonyl}-beta-alaninate] | 352
COc1cccc(-c2ccc(C(=O)Nc3ccncc3)cn2)c1 [Example 336, 6-(3-Methoxyphenyl)-N-pyridin-4-ylnicotinamide] | 87.3
COC(=O)[C@H](C)NC(=O)c1ccc(-c2cccc(OC)c2)nc1 [Example 340, Methyl N-{[6-(3-methoxyphenyl)pyridin-3-yl]carbonyl}alaninate] | ≥ 1000
COc1cccc(-c2ccc(C(=O)NCC(C)(C)CN(C)C)cn2)c1 [Example 342, N-[3-(Dimethylamino)-2,2-dimethylpropyl]-6-(3-methoxyphenyl)nicotinamide] | ≥ 1000
COc1cccc(-c2ccc(C(=O)NCC(=O)N(C)C)cn2)c1 [Example 343, N-[2-(Dimethylamino)-2-oxoethyl]-6-(3-methoxyphenyl)nicotinamide] | 975
COc1cccc(-c2ccc(C(=O)NCCc3ccncc3)cn2)c1 [Example 345, 6-(3-Methoxyphenyl)-N-(2-pyridin-4-ylethyl)nicotinamide] | 308
O=C(NCc1ccccc1)c1ccc(-c2ccccc2)nc1 [Example 347, N-Benzyl-6-phenylnicotinamide] | 4.3
COC(=O)CNC(=O)[C@H](C)NC(=O)c1ccc(-c2ccccc2)nc1 [Example 348, Methyl N-[(6-phenylpyridin-3-yl)carbonyl]-L-alanylglycinate] | 24.6
O=C(NCCN1CCCC1=O)c1ccc(-c2ccccc2)nc1 [Example 351, N-[2-(2-Oxopyrrolidin-1-yl)ethyl]-6-phenylnicotinamide] | 25.4
CN(C)CC(C)(C)CNC(=O)c1ccc(-c2ccccc2)nc1 [Example 352, N-[3-(Dimethylamino)-2,2-dimethylpropyl]-6-phenylnicotinamide] | 458

SMILES | IC50 [nM]
CCOC(=O)C(CNC(=O)c1ccc(-c2ccccc2)nc1)c1c(F)cccc1F (centres unmarked) [Example 355, Ethyl 2-(2,6-difluorophenyl)-3-{[(6-phenylpyridin-3-yl)carbonyl]amino}propanoate] | 138
O=C(NCCc1ccncc1)c1ccc(-c2ccccc2)nc1 [Example 356, 6-Phenyl-N-(2-pyridin-4-ylethyl)nicotinamide] | 11.6
O=C(NCc1cc(F)cc2c1OCOC2)c1ccc(-c2ccccc2)nc1 [Example 357, N-[(6-Fluoro-4H-1,3-benzodioxin-8-yl)methyl]-6-phenylnicotinamide] | 1.73
O=C(NCCN1CCCC1)c1ccc(-c2ccccc2)nc1 [Example 358, 6-Phenyl-N-(2-pyrrolidin-1-ylethyl)nicotinamide] | 199
O=C(NCCc1cccs1)c1ccc(-c2ccccc2)nc1 [Example 363, 6-Phenyl-N-[2-(2-thienyl)ethyl]nicotinamide] | 5.1
Cc1ccc(CNC(=O)c2ccc(-c3ccccc3)nc2)cc1 [Example 365, N-(4-Methylbenzyl)-6-phenylnicotinamide] | 4.2
O=C(CNC(=O)c1ccc(-c2ccccc2)nc1)OCc1ccccc1 [Example 367, Benzyl N-[(6-phenylpyridin-3-yl)carbonyl]glycinate] | 6.6
CCCCNC(=O)c1ccc(-c2ccccc2)nc1 [Example 368, N-Butyl-6-phenylnicotinamide] | 16.6
COC(=O)[C@H](Cc1ccc(Cl)cc1)NC(=O)c1ccc(-c2ccccc2)nc1 [Example 369, Methyl 4-chloro-N-[(6-phenylpyridin-3-yl)carbonyl]phenylalaninate] | 9.3
COC(=O)CC(NC(=O)c1ccc(-c2ccccc2)nc1)c1cccnc1 (centres unmarked) [Example 370, Methyl 3-{[(6-phenylpyridin-3-yl)carbonyl]amino}-3-pyridin-3-ylpropanoate] | 32.9
CCC1CCN(CCNC(=O)c2ccc(-c3ccccc3)nc2)CC1 [Example 371, N-[2-(4-Ethylpiperidin-1-yl)ethyl]-6-phenylnicotinamide] | 20.1
CCOC(=O)C1(NC(=O)c2ccc(-c3ccccc3)nc2)CCOCC1 [Example 372, Ethyl 4-{[(6-phenylpyridin-3-yl)carbonyl]amino}tetrahydro-2H-pyran-4-carboxylate] | 249
O=C(NCCN1CCCCC1=O)c1ccc(-c2ccccc2)nc1 [Example 373, N-[2-(2-Oxopiperidin-1-yl)ethyl]-6-phenylnicotinamide] | 39.7
CN(C)C(=O)CNC(=O)c1ccc(-c2ccccc2)nc1 [Example 374, N-[2-(Dimethylamino)-2-oxoethyl]-6-phenylnicotinamide] | 92.1
N#CC(NC(=O)c1ccc(-c2ccccc2)nc1)C(=O)NCCN1CCOCC1 (centres unmarked) [Example 376, N-{1-Cyano-2-[(2-morpholin-4-ylethyl)amino]-2-oxoethyl}-6-phenylnicotinamide] | 55.2
O=C(NC1CCN(Cc2ccc(Cl)cc2)C1=O)c1ccc(-c2ccccc2)nc1 (centres unmarked) [Example 377, N-[1-(4-Chlorobenzyl)-2-oxopyrrolidin-3-yl]-6-phenylnicotinamide] | 11.2

The remaining lines, values ahead:

IC50 [nM] | SMILES
≥ 1000 | CCOC(=O)CC(NC(=O)c1ccc(-c2cccc(OC)c2)nc1)c1ccc(Cl)cc1 (centres unmarked) [Example 334, Ethyl 3-(4-chlorophenyl)-3-({[6-(3-methoxyphenyl)pyridin-3-yl]cabonyl}amino)propanoate]
396 | COC(=O)CC(NC(=O)c1ccc(-c2cccc(OC)c2)nc1)c1cccnc1 (centres unmarked) [Example 337, Methyl 3-({[6-(3-methoxyphenyl)pyridin-3-yl]carbonyl}amino)-3-pyridin-3-ylpropanoate]
298 | COc1cccc(-c2ccc(C(=O)NCC(C)C)cn2)c1 [Example 338, N-isobutyl-6-(3-methoxyphenyl)nicotinamide]
266 | COc1cccc(-c2ccc(C(=O)NC(C)c3ccccc3)cn2)c1 (centres unmarked) [Example 339, 6-(3-Methoxyphenyl)-N-(1-phenylethyl)nicotinamide]
131 | COc1cccc(-c2ccc(C(=O)NCc3ccccc3)cn2)c1 [Example 341, N-Benzyl-6-(3-methoxyphenyl)nicotinamide]
159 | COC(=O)c1ccc(CNC(=O)c2ccc(-c3cccc(OC)c3)nc2)cc1 [Example 344, Methyl 4-[({[6-(3-methoxyphenyl)pyridin-3-yl]carbonyl}amino)methyl] benzoate]
4.07 | O=C(NCc1cccc(F)c1)c1ccc(-c2ccccc2)nc1 [Example 346, N-(3-Fluorobenzyl)-6-phenylnicotinamide]
47 | COC(=O)[C@H](C)NC(=O)c1ccc(-c2ccccc2)nc1 [Example 349, Methyl N-[(6-phenylpyridin-3-yl)carbonyl]alaninate]
6.8 | O=C(NCCCN1CCCC1=O)c1ccc(-c2ccccc2)nc1 [Example 350, N-[3-(2-Oxopyrrolidin-1-yl)propyl]-6-phenylnicotinamide]
25.3 | CC(C)(CNC(=O)c1ccc(-c2ccccc2)nc1)N1CCOCC1 [Example 353, N-(2-Methyl-2-morpholin-4-ylpropyl)-6-phenylnicotinamide]
1.66 | O=C(Nc1cccnc1)c1ccc(-c2ccccc2)nc1 [Example 354, 6-Phenyl-N-pyridin-3-ylnicotinamide]
37.1 | O=C(NCCN1CCOC1=O)c1ccc(-c2ccccc2)nc1 [Example 359, N-[2-(2-Oxo-1,3-oxazolidin-3-yl)ethyl]-6-phenylnicotinamide]
10.3 | O=C(NCCC1CCC(=O)N1CCN1CCNC1=O)c1ccc(-c2ccccc2)nc1 (centres unmarked) [Example 360, N-(2-{5-Oxo-1-[2-(2-oxoimidazolidin-1-yl)ethyl]pyrrolidin-2-yl}ethyl)-6-phenylnicotinamide]
11.8 | O=C(NCCN1CCCCC1)c1ccc(-c2ccccc2)nc1 [Example 361, 6-Phenyl-N-(2-piperidin-1-ylethyl)nicotinamide]
12 | CCOC(=O)CC(NC(=O)c1ccc(-c2ccccc2)nc1)c1ccc(OC)cc1 (centres unmarked) [Example 362, Ethyl 3-(4-methoxyphenyl)-3-{[(6-phenylpyridin-3-yl)carbonyl]amino}propanoate]
39.3 | NC(CC(=O)NC(=O)c1ccc(-c2ccccc2)nc1)C1CC1 (centres unmarked) [Example 364, N-(3-Amino-3-cyclopropylpropanoyl)-6-phenylnicotinamide]
7.5 | O=C(NC1CCOCC1)c1ccc(-c2ccccc2)nc1 [Example 366, 6-Phenyl-N-(tetrahydro-2H-pyran-4-yl)nicotinamide]
25.5 | O=C(NCCN1CCNC1=O)c1ccc(-c2ccccc2)nc1 [Example 375, N-[2-(2-Oxoimidazolidin-1-yl)ethyl]-6-phenylnicotinamide]
